IC50 data for 97 molecules are collected here from the Kinase Knowledgebase extract (Sharma et al. 2016).

Chain of MAPK14 (human) (Q16539 whole entry, looked up): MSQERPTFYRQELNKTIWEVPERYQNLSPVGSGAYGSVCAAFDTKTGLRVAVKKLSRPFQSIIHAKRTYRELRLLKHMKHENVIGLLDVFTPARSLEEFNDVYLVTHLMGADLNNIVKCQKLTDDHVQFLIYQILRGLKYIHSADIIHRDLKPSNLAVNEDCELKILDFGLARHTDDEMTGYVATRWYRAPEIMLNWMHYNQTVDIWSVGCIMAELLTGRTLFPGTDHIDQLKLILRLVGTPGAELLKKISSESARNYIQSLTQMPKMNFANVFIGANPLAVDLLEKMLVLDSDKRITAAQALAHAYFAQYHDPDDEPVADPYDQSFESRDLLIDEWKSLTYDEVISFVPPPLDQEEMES

The test concerns the target MAPK14 (human) (UniProt Q16539). Nature of the test: Inhibition of MAPK14 Kinase Activity.
By IC50 is commonly meant the point on the concentration scale where inhibition reaches its midpoint. A lower IC50 goes with greater potency in that assay. Turning to `CCOC(=O)CCC(=O)Nc1cc(Cl)c(N2CC(Cc3ccc(F)cc3F)CCC2=O)c(Cl)c1` (configuration not stated), the IC50 was ≤ 10 µM.
For the molecule `CN1CC(Cc2cc(F)cc(F)c2)CN(c2c(Cl)cccc2Cl)C1=O` (configuration not stated), the IC50 was ≤ 10 µM.
With `O=C(Cc1ccccc1)NC1CC(Cl)C(N2CC(Cc3ccc(F)cc3F)CCC2=O)C(Cl)C1` (configuration not stated) the figure was ≤ 10 µM; with `O=C1OCC(Cc2ccc(F)cc2F)CN1c1c(Cl)cc(O)cc1Cl` (configuration not stated), ≤ 10 µM; with `O=C1COC(Cc2ccc(Cl)cc2Cl)CN1c1c(Cl)cccc1Cl` (configuration not stated), ≤ 10 µM.
Under `CCOC(=O)CCNC(=O)c1cc(C)c(N2CC(Cc3ccc(F)cc3F)CCC2=O)c(C)c1` (configuration not stated) stands ≤ 10 µM.
With `NC(=O)/C=C/c1cc(Cl)c(N2CC(Cc3ccc(F)cc3F)CCC2=O)c(Cl)c1` (configuration not stated) the figure was ≤ 10 µM; with `O=C1CCC(Oc2ccc(F)cc2F)CN1c1c(Cl)ncc(O)c1Cl` (configuration not stated), ≤ 10 µM.
As to `Nc1ccc(Cl)c(N2CC(Cc3ccc(F)cc3F)CCC2=O)c1` (configuration not stated), the IC50 was ≤ 10 µM.
With `Cc1ccc(CC2CSC(=O)N(c3c(Cl)cccc3Cl)C2)c(C)c1` (configuration not stated) the figure was ≤ 10 µM.
For `O=C1CCC(Cc2ccc(F)cc2)CN1C1C(Cl)CCCC1Cl` (configuration not stated), the half-maximal inhibitory concentration (IC50) was ≤ 10 µM.
For `O=C1OCC(Cc2ccc3ccccc3c2)CN1c1c(Cl)cccc1Cl` (configuration not stated), the IC50 is ≤ 10 µM.
In the case of `COc1ccc(CC2CCC(=O)N(c3c(Cl)csc3Cl)C2)cc1` (configuration not stated), the IC50 is ≤ 10 µM.
Under `CN1CC(Cc2ccccc2F)CN(c2c(Cl)cccc2Cl)C1=O` (configuration not stated) stands ≤ 10 µM.
Turning to `O=C1CCC(Oc2ccc(F)cc2F)CN1c1c(Cl)ccnc1Cl` (configuration not stated), the IC50 was ≤ 10 µM.
With `O=C1CCC(Cc2ccc(F)cc2F)CN1c1c(Cl)cc(NCCN2CCCCC2)cc1Cl` (configuration not stated) the figure was ≤ 10 µM; with `NC1CC(Cl)C(N2CC(Cc3ccc(F)cc3F)CCC2=O)C(Cl)C1` (configuration not stated), ≤ 10 µM.
With `O=C(Cc1ccccc1)Nc1cc(Cl)c(N2CC(Cc3ccc(F)cc3F)CSC2=O)c(Cl)c1` (configuration not stated) the figure was ≤ 10 µM.
With `O=C(CNc1cc(Cl)c(N2CC(Cc3ccc(F)cc3F)CCC2=O)c(Cl)c1)NO` (configuration not stated) the figure was ≤ 10 µM; with `O=C1CCC(Cc2ccc(Cl)cc2)CN1C1C(Cl)CCCC1Cl` (configuration not stated), ≤ 10 µM; with `O=C1CCC(Cc2ccc(F)cc2)CN1c1c(Cl)cccc1Cl` (configuration not stated), ≤ 10 µM.
As to `CNc1ccc(Cl)c(N2CC(Cc3ccc(F)cc3F)SCC2=O)c1Cl` (configuration not stated), the IC50 was ≤ 10 µM.
In the case of `O=C1CCC(Cc2cc(Cl)cc(Cl)c2)CN1c1c(Cl)cccc1Cl` (configuration not stated), the half-inhibitory concentration (IC50) was ≤ 10 µM.
With `O=C(Cc1ccccc1)Nc1cc(Cl)c(N2CC(Sc3ccc(F)cc3F)CCC2=O)c(Cl)n1` (configuration not stated), the IC50 was ≤ 10 µM.
In the case of `O=C1CCC(Nc2ccc(F)cc2F)CN1c1c(Cl)cccc1Cl` (configuration not stated), the IC50 was ≤ 10 µM.
In the case of `O=C(Cc1ccccc1)Nc1ccc(Cl)c(N2CC(Cc3ccc(F)cc3F)CCC2=O)c1Cl` (configuration not stated), the IC50 was ≤ 10 µM.
As for `CNc1cc(Cl)c(N2CC(Sc3ccc(F)cc3F)CCC2=O)c(Cl)n1` (configuration not stated), the IC50 is ≤ 10 µM.
Turning to `COc1ccc(SC2CCC(=O)N(c3c(Cl)ccnc3Cl)C2)cc1` (configuration not stated), the IC50 was ≤ 10 µM.
As for `O=C1CCC(Cc2ccc(F)cc2F)CN1c1c(Cl)cc(C#CCO)cc1Cl` (configuration not stated), the IC50 is ≤ 10 µM.
Under `CN1CC(Cc2ccc(F)cc2F)CN(c2c(Cl)cc(N)cc2Cl)C1=O` (configuration not stated) stands ≤ 10 µM.
With `O=C1CCC(Oc2ccc(F)cc2F)CN1c1c(Cl)ccc(CO)c1Cl` (configuration not stated) the figure was ≤ 10 µM; with `O=C1CCC(Oc2ccc(F)cc2F)CN1c1c(Cl)sc(O)c1Cl` (configuration not stated), ≤ 10 µM.
With `COc1ccc(CC2CCC(=O)N(C3C(Cl)CCCC3Cl)C2)cc1` (configuration not stated) the figure was ≤ 10 µM.
With `Cc1cccc(C)c1N1CC(Cc2ccccc2OCC(=O)Nc2cc(C(C)(C)C)nn2C)CCC1=O` (configuration not stated), the IC50 was ≤ 10 µM.
Consider `O=C1CCC(Cc2ccc(F)cc2F)CN1c1c(Cl)cc(NCCO)cc1Cl` (configuration not stated), for which the IC50 is ≤ 10 µM.
Under `CN1CC(Cc2cc(Cl)cc(Cl)c2)CN(c2c(Cl)cccc2Cl)C1=O` (configuration not stated) stands ≤ 10 µM; under `Cc1cc(/C=C/C(=O)O)cc(C)c1N1CC(Cc2ccc(F)cc2F)CCC1=O` (configuration not stated), ≤ 10 µM; under `Cc1cc(C)cc(SC2CCC(=O)N(C3C(Cl)CCCC3Cl)C2)c1` (configuration not stated), ≤ 10 µM.
For the molecule `O=C1CCC(Cc2ccccc2F)CN1c1c(Cl)ccnc1Cl` (configuration not stated), the IC50 is ≤ 10 µM.
Under `O=C1CCC(Oc2cc(F)cc(F)c2)CN1c1c(Cl)cncc1Cl` (configuration not stated) stands ≤ 10 µM; under `O=C1CCC(Oc2cc(F)cc(F)c2)CN1c1c(Cl)cccc1Cl` (configuration not stated), ≤ 10 µM.
With `Nc1ncc(Cl)c(N2CC(Oc3ccc(F)cc3F)CCC2=O)c1Cl` (configuration not stated) the figure was ≤ 10 µM; with `O=C1CCC(Oc2ccc(F)cc2)CN1c1c(Cl)ccnc1Cl` (configuration not stated), ≤ 10 µM; with `O=C1CCC(Cc2ccc(F)cc2F)CN1c1c(Cl)cc(N2C(=O)CCCC2=O)cc1Cl` (configuration not stated), ≤ 10 µM.
With `O=C1CCC(Oc2ccc(Cl)cc2)CN1c1c(Cl)cncc1Cl` (configuration not stated), the IC50 was ≤ 10 µM.
`O=C1OCC(Cc2cc(F)cc(F)c2)CN1c1c(Cl)cccc1Cl` (configuration not stated): the IC50 is ≤ 10 µM.
With `COC(=O)CCc1cc(Cl)c(N2CC(Cc3ccc(F)cc3F)CCC2=O)c(Cl)c1` (configuration not stated), the IC50 was ≤ 10 µM.
Under `Nc1cnc(Cl)c(N2CC(Oc3ccc(F)cc3F)CCC2=O)c1Cl` (configuration not stated) stands ≤ 10 µM; under `O=C1CCC(Cc2ccccc2Cl)CN1c1c(Cl)csc1Cl` (configuration not stated), ≤ 10 µM; under `Nc1cnc(Cl)c(N2CC(Cc3ccc(F)cc3F)CCC2=O)c1Cl` (configuration not stated), ≤ 10 µM.
With `O=C(Cc1ccccc1)Nc1cnc(Cl)c(N2CC(Oc3ccc(F)cc3F)CCC2=O)c1Cl` (configuration not stated) the figure was ≤ 10 µM; with `O=C(Nc1ccc(CC2CCC(=O)N(c3c(Cl)cccc3Cl)C2)cc1)C1CCCCC1` (configuration not stated), ≤ 10 µM.
Under `CC(=O)NC1CC(Cl)C(N2CC(Sc3ccc(F)cc3F)CCC2=O)C(Cl)C1` (configuration not stated) stands ≤ 10 µM.
For `CNc1cc(Cl)c(N2CC(Cc3ccc(F)cc3F)CNC2=O)c(Cl)c1` (configuration not stated), the half-inhibitory concentration (IC50) is ≤ 10 µM.
On to `O=C1CSC(Cc2ccc(Cl)cc2Cl)CN1c1c(Cl)cccc1Cl` (configuration not stated), for which the half-maximal inhibitory concentration (IC50) was ≤ 10 µM.
Under `COC(=O)c1cc(C)c(N2C[C@@H](Cc3ccc(F)cc3F)C[C@@H](C)C2=O)c(C)c1` stands ≤ 10 µM; under `O=C(CCCO)Nc1cc(Cl)c(N2CC(Cc3ccc(F)cc3F)CCC2=O)c(Cl)c1` (configuration not stated), ≤ 10 µM; under `O=C1NCC(Cc2ccc3ccccc3c2)CN1c1c(Cl)cccc1Cl` (configuration not stated), ≤ 10 µM.
With `Cc1ccc(CC2COC(=O)N(c3c(Cl)cccc3Cl)C2)c(C)c1` (configuration not stated), the IC50 is ≤ 10 µM.
Under `O=C1COC(Cc2cc(F)cc(F)c2)CN1c1c(Cl)cccc1Cl` (configuration not stated) stands ≤ 10 µM.
Under `Cc1cc(CCCCC=O)cc(C)c1N1CC(Cc2ccc(F)cc2F)CCC1=O` (configuration not stated) stands ≤ 10 µM.
`O=C1CCC(Cc2cc(F)cc(F)c2)CN1c1c(Cl)cncc1Cl` (configuration not stated): the half-inhibitory concentration (IC50) was ≤ 10 µM.
Under `C[C@@H]1C[C@@H](Cc2ccc(F)cc2F)CN(c2c(Cl)cccc2Cl)C1=O` stands ≤ 10 µM; under `C[C@H]1C[C@@H](Cc2ccc(F)cc2F)CN(c2c(Cl)cccc2Cl)C1=O`, ≤ 10 µM; under `O=C1CCC(C(O)c2ccc(F)cc2F)CN1c1c(Cl)cc(Br)cc1Cl` (configuration not stated), ≤ 10 µM.
With `CN1CC(Cc2ccc(F)cc2F)CN(c2c(Cl)ccc(N)c2Cl)C1=O` (configuration not stated) the figure was ≤ 10 µM.
With `Cc1cc(C)cc(CC2CCC(=O)N(c3c(Cl)ccnc3Cl)C2)c1` (configuration not stated) the figure was ≤ 10 µM; with `CC(=O)Nc1ccc(Cl)c(N2CC(Sc3ccc(F)cc3F)CCC2=O)c1Cl` (configuration not stated), ≤ 10 µM; with `Nc1cc(Cl)c(N2CC(Sc3ccc(F)cc3F)CCC2=O)c(Cl)n1` (configuration not stated), ≤ 10 µM.
Take `CN1CC(Cc2ccc(Cl)cc2)CN(c2c(Cl)cccc2Cl)C1=O` (configuration not stated): the concentration for half-maximal inhibition (IC50) is ≤ 10 µM.
With `C[C@@H]1C[C@H](Cc2ccc(F)cc2F)CN(c2c(Cl)cc(NC(=O)OC(C)(C)C)cc2Cl)C1=O` the figure was ≤ 10 µM.
Turning to `Cc1cccc(C)c1N1CC(Cc2ccccc2Br)CCC1=O` (configuration not stated), the IC50 was ≤ 10 µM.
Take `O=Cc1ccccc1CC1CCC(=O)N(c2c(Cl)cccc2Cl)C1` (configuration not stated): the half-maximal inhibitory concentration (IC50) is ≤ 10 µM.
With `CNc1cc(Cl)c(N2CC(Cc3ccc(F)cc3F)OCC2=O)c(Cl)c1` (configuration not stated) the figure was ≤ 10 µM.
Consider `O=C1CCC(Oc2cc(Cl)cc(Cl)c2)CN1c1c(Cl)cccc1Cl` (configuration not stated), for which the IC50 is ≤ 10 µM.
With `O=C(Cc1ccccc1)Nc1ncc(Cl)c(N2CC(Oc3ccc(F)cc3F)CCC2=O)c1Cl` (configuration not stated) the figure was ≤ 10 µM; with `O=C1CCC(Oc2ccccc2)CN1C1C(Cl)CCCC1Cl` (configuration not stated), ≤ 10 µM.
In the case of `O=C1CCC(Cc2cccc3ccccc23)CN1c1c(Cl)csc1Cl` (configuration not stated), the concentration for half-maximal inhibition (IC50) was ≤ 10 µM.
With `O=C1CCC(Oc2ccc3ccccc3c2)CN1c1c(Cl)ccnc1Cl` (configuration not stated) the figure was ≤ 10 µM.
With `O=C1CSC(Cc2ccc(F)cc2F)CN1c1c(Cl)ccc(O)c1Cl` (configuration not stated) the figure was ≤ 10 µM; with `Cc1ccc(SC2CCC(=O)N(c3c(Cl)cccc3Cl)C2)cc1` (configuration not stated), ≤ 10 µM; with `O=C1CCC(Cc2ccccc2Cl)CN1c1c(Cl)cncc1Cl` (configuration not stated), ≤ 10 µM.
For `CCN(CC)CCNc1cc(Cl)c(N2CC(Cc3ccc(F)cc3F)CCC2=O)c(Cl)c1` (configuration not stated), the IC50 was ≤ 10 µM.
With `Cc1cccc(C)c1N1CC(Cc2ccccc2OCC(=O)O)CCC1=O` (configuration not stated) the figure was ≤ 10 µM.
In the case of `COc1ccc(CC2CCC(=O)N(c3c(Cl)cccc3Cl)C2)cc1` (configuration not stated), the half-maximal inhibitory concentration (IC50) was ≤ 10 µM.
Under `O=C1OCCN1c1cc(Cl)c(N2CC(Cc3ccc(F)cc3F)CCC2=O)c(Cl)c1` (configuration not stated) stands ≤ 10 µM; under `O=C1COC(Cc2ccc(Cl)cc2)CN1c1c(Cl)cccc1Cl` (configuration not stated), ≤ 10 µM; under `COC(=O)c1cc(C)c(N2CC(Cc3ccc(F)cc3F)CCC2=O)c(Cl)c1` (configuration not stated), ≤ 10 µM.
Turning to `Cc1cc(C)cc(OC2CCC(=O)N(c3c(Cl)ccnc3Cl)C2)c1` (configuration not stated), the IC50 was ≤ 10 µM.
Under `Cn1nc(C(C)(C)C)cc1NC(=O)OCc1ccccc1CC1CCC(=O)N(c2c(Cl)cccc2Cl)C1` (configuration not stated) stands ≤ 10 µM; under `COCCOCOc1ccccc1CC1CCC(=O)N(c2c(C)cccc2C)C1` (configuration not stated), ≤ 10 µM.
Under `COc1ccc(CC2CCC(=O)N(c3c(Cl)cncc3Cl)C2)cc1` (configuration not stated) stands ≤ 10 µM.
Under `OCc1ccccc1CC1CCCN(c2c(Cl)cccc2Cl)C1` (configuration not stated) stands ≤ 10 µM; under `O=C1CCC(Oc2ccc(F)cc2F)CN1c1c(Cl)ncc(CO)c1Cl` (configuration not stated), ≤ 10 µM.
In the case of `O=C1SCC(Cc2cccc3ccccc23)CN1c1c(Cl)cccc1Cl` (configuration not stated), the IC50 is ≤ 10 µM.
Under `CN(C)CCNc1cc(Cl)c(N2CC(Cc3ccc(F)cc3F)CCC2=O)c(Cl)c1` (configuration not stated) stands ≤ 10 µM; under `O=C1CCC(Sc2ccc(Cl)cc2)CN1C1C(Cl)CCCC1Cl` (configuration not stated), ≤ 10 µM.
